The values that follow come from PMC4436063 (mBio, 2015).

This assay deals with CheS3. The experiment in a line: microscale thermophoresis. Format: binding, Rhodospirillum centenum. To be noted: fluorescently labelled CheS3 (Blue-NHS, 100 nM); non-hydrolysable ATP analogue. For orientation: In MST a laser heats a spot of the sample, and binding alters the fluorescence response.

Each structure is given as a SMILES string. pKd: −log10 of the molar value.

In the case of `Nc1ncnc2c1ncn2[C@@H]1O[C@H](COP(=O)(O)OP(=O)(O)OP(O)(O)=S)[C@@H](O)[C@H]1O` [ATPγS], the pKd – broadly, the Kd on a negative log10 scale, so that one unit is a factor of ten – was 6.95.
